US5520901A, “Method for the recovery of iodine from an environment” (General Electric Company, priority 1993, dated 1996)

Tests used:
[1] = Final pH of treated solution; assay type: physicochemical; conditions: 0.2 grams of reagent; water 4.36
Description: The basicity of certain reagents was examined in terms of the reagents' relative ability to recover iodine. […] The amount of each reagent was 0.2 grams.

[2] = cited from earlier work

SMILES	Final pH of Treated Solution [1]	Water Solubility [2] [g/100 cc]
[Ca+2].[OH-].[OH-] [Ca(OH)2, calcium hydroxide]	12.23	
[O]=[Mg] [MgO, magnesium oxide]	7.33	0.001
[Mg+2].[OH-].[OH-] [Mg(OH)2, magnesium hydroxide]	8.86	
O=C(O)O [CaCO3, Calcium carbonate]	7.12	
[O]=[Ca] [CaO, calcium oxide]	12.34	0.131
O=C(O)O [MgCO3, magnesium carbonate]	7.96	
